Measured values published in ChEMBL document CHEMBL4257530, “Synthesis and evaluation of 6-heteroarylamino-2,4,5-trimethylpyridin-3-ols as inhibitors of TNF-α-induced cell adhesion and inflammatory bowel disease” (Medchemcomm, 2018).
Activity calls are given as the source filed them. The rule behind the calls is not given here.

Experiments:
[1] = test system: HT-29; assay: Potency index, ratio of compound effect to 5-ASA effect for inhibition of TNFalpha-mediated adhesion of BCECF fluorescence-labeled human U937 cells to human HT-29 cells at 1 uM; format: functional
[2] = test system: HT-29; assay: Inhibition of TNFalpha-mediated adhesion of BCECF fluorescence-labeled human U937 cells to human HT-29 cells at 1 uM pretreated for 1 hr followed by BCECF fluorescence-labeled human U937 cell/TNFalpha addition and measured after 3 hrs by fluorescence assay relative to control; format: functional
[3] = test system: Rattus norvegicus; assay: Antiinflammatory activity in TNBS-induced Sprague-Dawley rat colitis model assessed as myeloperoxidase level at 1 mg/kg, po administered once daily via gavage for 5 days starting 1 day post TNBS induction measured on day 7 by ELISA (reference value: 456.67 +/- 41.78 ng/ml); format: functional
[4] = test system: Rattus norvegicus; assay: Antiinflammatory activity in TNBS-induced Sprague-Dawley rat colitis model assessed as decrease in IL1beta expression at 1 mg/kg, po administered once daily via gavage for 5 days starting 1 day post TNBS induction measured on day 7 by Western blot analysis; format: functional, organism-based
[5] = test system: Rattus norvegicus; assay: Antiinflammatory activity in TNBS-induced Sprague-Dawley rat colitis model assessed as decrease in IL-6 expression at 1 mg/kg, po administered once daily via gavage for 5 days starting 1 day post TNBS induction measured on day 7 by Western blot analysis; format: functional, organism-based
[6] = test system: Rattus norvegicus; assay: Antiinflammatory activity in TNBS-induced Sprague-Dawley rat colitis model assessed as decrease in ICAM1 expression at 1 mg/kg, po administered once daily via gavage for 5 days starting 1 day post TNBS induction measured on day 7 by Western blot analysis; format: functional, organism-based
[7] = test system: Rattus norvegicus; assay: Antiinflammatory activity in TNBS-induced Sprague-Dawley rat colitis model assessed as reduction in body weight loss at 1 mg/kg, po administered once daily via gavage for 5 days starting 1 day post TNBS induction measured on day 7; format: functional, organism-based
[8] = test system: Rattus norvegicus; assay: Antiinflammatory activity in TNBS-induced Sprague-Dawley rat colitis model assessed as decrease in TNFalpha expression at 1 mg/kg, po administered once daily via gavage for 5 days starting 1 day post TNBS induction measured on day 7 by Western blot analysis; format: functional, organism-based
[9] = test system: Rattus norvegicus; assay: Antiinflammatory activity in TNBS-induced Sprague-Dawley rat colitis model assessed as increase in IL-10 expression at 1 mg/kg, po administered once daily via gavage for 5 days starting 1 day post TNBS induction measured on day 7 by Western blot analysis; format: functional, organism-based
[10] = test system: Rattus norvegicus; assay: Antiinflammatory activity in TNBS-induced Sprague-Dawley rat colitis model assessed as decrease in MCP1 expression at 1 mg/kg, po administered once daily via gavage for 5 days starting 1 day post TNBS induction measured on day 7 by ELISA; format: functional, organism-based
[11] = test system: Rattus norvegicus; assay: Antiinflammatory activity in TNBS-induced Sprague-Dawley rat colitis model assessed as recovery in colon weight at 1 mg/kg, po administered once daily via gavage for 5 days starting 1 day post TNBS induction measured on day 7 relative to control; format: functional
[12] = test system: HT-29; assay: Potency index, ratio of 5-ASA IC50 to test compound IC50 for TNFalpha-mediated adhesion of BCECF fluorescence-labeled human U937 cells to human HT-29 cells; format: functional
[13] = test system: HT-29; assay: Inhibition of TNFalpha-mediated adhesion of BCECF fluorescence-labeled human U937 cells to human HT-29 cells at 20 mM pretreated for 1 hr followed by BCECF fluorescence-labeled human U937 cell/TNFalpha addition and measured after 3 hrs by fluorescence assay relative to control; format: functional
[14] = test system: Rattus norvegicus; assay: Antiinflammatory activity in TNBS-induced Sprague-Dawley rat colitis model assessed as recovery in colon weight at 300 mg/kg, po administered once daily via gavage for 5 days starting 1 day post TNBS induction measured on day 7; format: functional, organism-based
[15] = test system: Rattus norvegicus; assay: Antiinflammatory activity in TNBS-induced Sprague-Dawley rat colitis model assessed as decrease in IL1beta expression at 300 mg/kg, po administered once daily via gavage for 5 days starting 1 day post TNBS induction measured on day 7 by Western blot analysis; format: functional, organism-based
[16] = test system: Rattus norvegicus; assay: Antiinflammatory activity in TNBS-induced Sprague-Dawley rat colitis model assessed as increase in IL-10 expression at 300 mg/kg, po administered once daily via gavage for 5 days starting 1 day post TNBS induction measured on day 7 by Western blot analysis; format: functional, organism-based
[17] = test system: Rattus norvegicus; assay: Antiinflammatory activity in TNBS-induced Sprague-Dawley rat colitis model assessed as decrease in IL-6 expression at 300 mg/kg, po administered once daily via gavage for 5 days starting 1 day post TNBS induction measured on day 7 by Western blot analysis; format: functional, organism-based
[18] = test system: Rattus norvegicus; assay: Antiinflammatory activity in TNBS-induced Sprague-Dawley rat colitis model assessed as decrease in TNFalpha expression at 300 mg/kg, po administered once daily via gavage for 5 days starting 1 day post TNBS induction measured on day 7 by Western blot analysis; format: functional, organism-based
[19] = test system: Rattus norvegicus; assay: Antiinflammatory activity in TNBS-induced Sprague-Dawley rat colitis model assessed as decrease in MCP1 expression at 300 mg/kg, po administered once daily via gavage for 5 days starting 1 day post TNBS induction measured on day 7 by ELISA; format: functional, organism-based
[20] = test system: Rattus norvegicus; assay: Antiinflammatory activity in TNBS-induced Sprague-Dawley rat colitis model assessed as decrease in ICAM1 expression at 300 mg/kg, po administered once daily via gavage for 5 days starting 1 day post TNBS induction measured on day 7 by Western blot analysis; format: functional, organism-based
[21] = test system: Rattus norvegicus; assay: Antiinflammatory activity in TNBS-induced Sprague-Dawley rat colitis model assessed as myeloperoxidase level at 300 mg/kg, po administered once daily via gavage for 5 days starting 1 day post TNBS induction measured on day 7 by ELISA (reference value: 456.67 +/- 41.78 ng/ml); format: functional

SMILES | Ratio [1] | inhibition at 1 µM [2] [%] | further results
Cc1nc(Nc2ccc(C(F)(F)F)cn2)c(C)c(C)c1O | 3 - 5 | 34.8 | –
Cc1nc(Nc2nccs2)c(C)c(C)c1O | 3 - 5 | 23.7 | –
Cc1nc(Nc2ccc(Cl)cn2)c(C)c(C)c1O | 3 - 5 | 59 | –
Cc1nc(Nc2nnc(-c3ccccc3)s2)c(C)c(C)c1O | 3 - 5 | 78.7 | Activity [3]: 107.37 ng/mL; Activity [4]: Active; Activity [5]: Active; Activity [6]: Active; Activity [7]: Active; Activity [8]: Active; Activity [9]: Active; Activity [10]: Active; Activity [11]: 79%
Cc1nc(Nc2ccc(C(F)(F)F)nc2)c(C)c(C)c1O | 3 - 5 | 50.6 | –
Cc1nc(Nc2cccc3cnccc23)c(C)c(C)c1O | 3 - 5 | 52.8 | –
Cc1ccc(-c2nnc(Nc3nc(C)c(O)c(C)c3C)s2)cc1 | 3 - 5 | 16.6 | –
Cc1nnc(Nc2nc(C)c(O)c(C)c2C)o1 | 3 - 5 | 26.2 | –
Cc1nc(Nc2nc3ccccc3[nH]2)c(C)c(C)c1O | 3 - 5 | 59.9 | –
Cc1nc(Nc2nnc(C(F)(F)F)o2)c(C)c(C)c1O | 3 - 5 | 35.8 | –
COc1ccc(-c2nnc(Nc3nc(C)c(O)c(C)c3C)s2)cc1 | 3 - 5 | 13.2 | –
Cc1nc(Nc2nnc(-c3ccc(C(F)(F)F)cc3)s2)c(C)c(C)c1O | 3 - 5 | 52.3 | –
Cc1nc(Nc2cc(C(F)(F)F)ccn2)c(C)c(C)c1O | 3 - 5 | 22.8 | –
Cc1nc(Nc2ccc3ncccc3c2)c(C)c(C)c1O | 3 - 5 | 56.6 | –
Cc1nc(Nc2nnc(-c3ccc(C(F)(F)F)cc3)o2)c(C)c(C)c1O | 3 - 5 | 55.7 | –
Cc1nc(Nc2cccc3[nH]ccc23)c(C)c(C)c1O | 3 - 5 | 31.9 | –
Cc1nc(Nc2nnc(-c3ccccc3)o2)c(C)c(C)c1O | – | 1.4 | –
COC(=O)c1sccc1Nc1nc(C)c(O)c(C)c1C | 3 - 5 | 23.7 | –
Cc1nc(Nc2ccccn2)c(C)c(C)c1O | 3 - 5 | 8.5 | –
CCOC(=O)c1coc(Nc2nc(C)c(O)c(C)c2C)n1 | 3 - 5 | 38.5 | –
Cc1nc(Nc2cccc3cccnc23)c(C)c(C)c1O | 3 - 5 | 10.4 | –
Cc1nc(Nc2cncc3ccccc23)c(C)c(C)c1O | 3 - 5 | 55.4 | –
Cc1nc(Nc2cnc3ccccc3c2)c(C)c(C)c1O | 3 - 5 | 63.4 | Ratio IC50 [12]: <=7 ×10⁴ No_unit
Nc1ccc(O)c(C(=O)O)c1 [MESALAMINE] | – | 3.5 | inhibition at 20000 µM [13]: 50.5%
Cc1nc(Nc2ccnc3ccccc23)c(C)c(C)c1O | 3 - 5 | 60.2 | –
Cc1nc(Nc2ccc(Cl)nc2)c(C)c(C)c1O | 3 - 5 | 75.4 | Ratio IC50 [12]: <=7 ×10⁴ No_unit; Activity [3]: 127.02 ng/mL; Activity [4]: Active; Activity [5]: Active; Activity [6]: Active; Activity [7]: Active; Activity [8]: Active; Activity [9]: Active; Activity [10]: Active; Activity [11]: 72%
Cc1nc(Nc2nnc(-c3ccc(Br)cc3)s2)c(C)c(C)c1O | 3 - 5 | 13.7 | –
O=C(O)c1cc(/N=N/c2ccc(S(=O)(=O)Nc3ccccn3)cc2)ccc1O [SULFASALAZINE] | – | – | Activity [14]: Active; Activity [15]: Active; Activity [16]: Active; Activity [17]: Active; Activity [18]: Active; Activity [19]: Active; Activity [20]: Active; Activity [21]: 209.65 ng/mL
